Measured values as given in publication PMC4627731, “Leishmanicidal Effect of Synthetic trans-Resveratrol Analogs” (PLoS ONE, 2015).

Assays:
[1] = tested on: L. amazonensis intracellular amastigotes; assay: Anti-amastigote activity in infected macrophages; assay type: cell-based, Leishmania amazonensis
Protocol: Mice peritoneal macrophages obtained after stimulation with thioglycolate for 3 days were harvested in RPMI 1640 medium (LGC Biotecnologia, São Paulo, Brazil), 20 μg/mL of gentamycin and were plated onto 13 mm^2 coverslips inside 24-well plates for adherence for 2 h at 37°C, 5% CO2. Non-adherent cells were removed, and the macrophages were incubated overnight in RPMI supplemented with 10% FCS, as described above. Adhered macrophages were infected with L. amazonensis promastigotes (stationary growth phase) at a 10:1 parasite/macrophage ratio and incubated for 1 h at 34°C, 5% CO2. Free parasites were washed out with 0.01 M phosphate buffered saline (PBS), and the cultures maintained for 24 h at 37°C, 5% CO2. Infected macrophage cultures were treated with different concentrations of the analogs for an additional 24 h at 37°C, 5% CO2. Monolayers were then washed with PBS at 37°C, fixed in methanol, and stained with Giemsa. The number of amastigotes and the percentage of infected macrophages were determined by counting at least 200 cells in duplicate cultures. Endocytic indices were obtained by multiplying the percentage of infected macrophages by the mean number of amastigotes per infected macrophage. The results were expressed as the percentage of surviving macrophages based on endocytic indices of treated and untreated macrophages as reported previously.
The selectivity index was calculated as the ratio of murine peritoneal macrophages CC50 by L. amazonensis intracellular amastigotes IC50.

[2] = tested on: promastigotes of L. major; details: cited from earlier work
[3] = tested on: amastigotes of L. donovani in RAW macrophages; details: cited from earlier work
[4] = tested on: Leishmania amazonensis promastigotes; assay: Anti-promastigote activity (XTT); assay type: cell-based; details: Leishmania amazonensis, 48 h, L. amazonensis promastigotes, 48 h treatment, XTT; read-out: IC50 Promastigotes
Protocol: L. amazonensis (WHOM/BR/75/Josefa) promastigotes were cultured at 26°C in Schneider insect medium (Sigma), 10% fetal calf serum (Gibco-BRL, MD, US.) and 20 μg/mL of gentamycin (Schering-Plough, Rio de Janeiro, Brazil).
The leishmanicidal properties of the analogs were evaluated by measuring promastigotes’ mitochondrial activity using the XTT method with 2,3-bis-[2-methoxy-4-nitro-5-sulphophenyl]-2H-tetrazolium-5-carboxanilida, Sigma) as described previously. […] Sodium azide (10 μM) was used as a control, and the reaction product was read at 450 nm.

[5] = Nitric oxide-trapping capacity, cell-free SNAP system; details: 1 mM SNAP, 6 h, rutin 1 mM, pterostilbene 33.2 μM, piceatannol 45 μM, polydatin 29 μM, oxyresveratrol 30.5 μM
Protocol: A cell-free system with an NO donor was used to test the capacity of resveratrol analogs to trap NO. SNAP (s-nitroso n-acetyl DL-penicillamine, Sigma) liberates nitric oxide in solution, which is then transformed to nitrite in the medium. The addition of a NO scavenger to the SNAP solution results in nitrite decay in the supernatant. […] One milimolar rutin (Sigma), a known NO scavenger, was used as a positive control for this assay. After 6 h of incubation, the nitrite concentration was determined using the Griess method. The results are expressed as the μM concentration of nitrite calculated in comparison with the sodium nitrite standard curve.

[6] = tested on: Leishmania amazonensis promastigotes; assay: Cell cycle analysis (PI, flow cytometry); assay type: cell-based; details: 48 h
Protocol: The cells were washed with PBS and fixed in 70% (v/v) ice-cold methanol/PBS for at least 1 h at 4°C. The fixed cells were washed once with PBS and then incubated in PBS supplemented with 10 μg/mL propidium iodide (PI) and 20 μg/mL RNAse at 37°C, 45 min, as reported. For each sample, 10000 events were collected on a BD FACScalibur (Becton and Dickson) and analyzed using CellQuest software.

[7] = tested on: murine peritoneal macrophages; assay: Detection of reactive oxygen species (DHR 123); assay type: cell-based, mouse; details: compounds at amastigote IC50
Protocol: Mice peritoneal macrophages were adhered to 96-well opaque culture plates and then infected or not with L. amazonensis promastigotes. […] The cells were then stained with 50 μM dihydrorhodamine 123 (DHR 123, Life Technologies), and ROS was measured immediately using 500/526 nm excitation/emission wavelengths.

[8] = Cytotoxicity for host macrophages (XTT); assay type: cell-based; details: mouse, murine peritoneal macrophages
Protocol: After 3 h of incubation, the reaction product was read at 450 nm. The results are expressed in percentage of viable cells compared to untreated control.

[9] = tested on: Leishmania amazonensis promastigotes; assay: Annexin V binding assay; assay type: cell-based; details: 48 h; piceatannol 100 μM, miltefosine 30 μM
Protocol: Double staining for annexin V-fluorescein isothiocyanate (FITC) and PI was performed with the Annexin-V apoptosis detection kit (Molecular Probes). […] They were then washed twice in cold annexin V-buffer and centrifuged at 2760 x g for 10 min. Pellets were resuspended in 20 μL of annexin V FITC, and after 15 min of incubation in the dark, 480 μL of annexin V-buffer was added according to the manufacturer instructions. Annexin V-FITC labeling was recorded on a BD FACScalibur (Becton and Dickson) and analyzed using CellQuest software.

[10] = tested on: promastigotes of L. donovani; details: cited from earlier work
[11] = tested on: murine peritoneal macrophages; assay: Nitric oxide production by macrophages (Griess); assay type: cell-based, mouse; details: uninfected macrophages stimulated with LPS; 33.2 μM pterostilbene, 45 μM piceatannol
Protocol: Thioglycolate-stimulated peritoneal macrophages were obtained as described above (10^6 cells/well in 24-well plate) and were activated with 1 μg/ml LPS (Sigma-Aldrich) or left untreated. […] The nitrite concentrations in the culture supernatants were determined using the Griess method. The reaction was read at 540 nm, and the concentration of NO2 ^- determined using a standard curve of sodium nitrite. The results are expressed as micromolar concentrations of nitrite.

[12] = tested on: promastigotes of L. infantum; details: cited from earlier work
[13] = tested on: Leishmania amazonensis promastigotes; assay: Mitochondrial membrane potential (JC-1); assay type: cell-based; details: 65 μM, 48 h, JC-1 red/green ratio
Protocol: Change in ΔΨm was measured using the mitochondria staining kit (Sigma-Aldrich).

[14] = pterostilbene 17.7 μM, piceatannol 65 μM, polydatin 95.4 μM, oxyresveratrol 65 μM, mean ± SEM

Oc1cc(O)cc(/C=C/c2ccc(O)c(O)c2)c1 [Piceatannol, trans-3,4,3',5'-tetrahydroxystilbene]
IC50 ([1]; Leishmania amazonensis, Peritoneal macrophage, L. amazonensis in murine peritoneal macrophages, 24 h treatment): 45 µM
SI (selectivity index; therapeutic index) ([1]; ratio of CC50 on murine peritoneal macrophages to IC50 on L. amazonensis intracellular amastigotes): >8.9
IC50 [2]: 23.3 µM
IC50 promastigotes of L. major [2]: 5.7 µg/mL
IC50 [3]: 30.3 µM
IC50 amastigotes of L. donovani in RAW macrophages [3]: 7.4 µg/mL
IC50 [4]: 65 µM
Decrease of NO levels (NO scavenging) [5]: did not reduce the levels of NO
Decrease of cells in G0-G1 phase ([6]; 65 μM): 1.7 fold
Increase of cells in Sub-G0 phase ([6]; 65 μM): 5 fold
% cells in different stages of the cell cycle: G0/G1 [6, 14]: 21.890 ± 0.840 %
% cells in different stages of the cell cycle: G2/M [6, 14]: 14.273 ± 0.966%
% cells in different stages of the cell cycle: S [6, 14]: 8.167 ± 0.522%
% cells in different stages of the cell cycle: Sub-G0 [6, 14]: 30.990 ± 1.544 %
% cells: Hyperploidies [6, 14]: 24.947 ± 0.801%
Reduction of ROS levels ([7]; L. amazonensis infected macrophages): 5.8 fold
Reduction of ROS levels ([7]; infected and PMA-stimulated macrophages): 6.6 fold
Reduction of ROS levels ([7]; uninfected macrophages stimulated with 1 μg/mL PMA): 4.3 fold
Reduction of ROS levels ([7]; uninfected macrophages): 3.4 fold
CC50 at 24 h [8]: > 400 µM
Increase of annexin-V positive promastigotes in relation to untreated control [9]: 2.5 fold
IC50 [10]: 17.2 µM
IC50 promastigotes of L. donovani [10]: 4.2 µg/mL
Decrease of NO production [11]: 5.0 fold
IC50 [12]: 16 µM
IC50 promastigotes of L. infantum [12]: 3.9 µg/mL
Reduction in the mitochondrial membrane potential (ΔΨm) [13]: 2.8 fold
